This note sets out measurements from patent US12281149B2, “Modulators of G-protein coupled receptors” (priority 2021, dated 2025).

Assay type in all cases: cell-based
The target in test [1] is T1, GIP receptor (Homo sapiens, UniProt P48546).
T1 sequence (P48546 22-466): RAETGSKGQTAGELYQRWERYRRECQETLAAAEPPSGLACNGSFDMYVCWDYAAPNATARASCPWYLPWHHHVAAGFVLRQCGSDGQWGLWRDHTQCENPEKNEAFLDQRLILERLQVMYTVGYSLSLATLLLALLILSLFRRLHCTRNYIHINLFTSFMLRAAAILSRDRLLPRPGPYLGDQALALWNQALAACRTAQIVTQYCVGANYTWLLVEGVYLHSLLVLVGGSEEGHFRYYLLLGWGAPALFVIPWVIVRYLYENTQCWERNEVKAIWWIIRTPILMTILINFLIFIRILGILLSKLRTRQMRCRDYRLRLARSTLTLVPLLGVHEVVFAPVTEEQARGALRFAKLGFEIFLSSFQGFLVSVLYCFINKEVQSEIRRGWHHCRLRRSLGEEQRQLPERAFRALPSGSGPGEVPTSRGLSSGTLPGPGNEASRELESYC
As to the kind of experiment: HitHunter cAMP assay, GIP receptor. To be noted: for Emax: read-out: Emax GIP-1R. Background: Cyclic AMP is a second messenger, typically raised through Gs and lowered through Gi signalling.

Test [2] addresses T1, GIP receptor. As to the kind of experiment: PathHunter β-arrestin assay, GIP receptor. The arrangement: host or cells: PathHunter CHO-K1 GIPR β-Arrestin Cell Line.
Test [3] has as its target T2, GLP-1 receptor (Homo sapiens, UniProt P43220). Nature of the test: HitHunter cAMP assay, GLP-1 receptor. The conditions noted are these: for Emax: read-out: Emax GLP-1R.
The target of test [4] is T2, GLP-1 receptor. As to the kind of experiment: PathHunter β-arrestin assay, GLP-1 receptor. Details: host or cells: PathHunter CHO-K1 GLP1R β-Arrestin Cell Line.
The mark [5] stands for this setting: CHO cells stably expressing GIP receptor, cAMP accumulation, 30 min, read-out: EC50 GIP-1R.
Setting [6] is: CHO cells, cAMP, normalized to maximum signal from GIP (high) and DMSO (low).
[7] abbreviates: β-arrestin-2 recruitment, PathHunter CHO-K1 GIPR β-Arrestin Cell Line, 90 min at 37° C., normalized to GIP, read-out: GIPR β Arrestin EC50.
[8] abbreviates: CHO cells stably expressing human GLP-1 receptor, cAMP accumulation, 30 min, read-out: EC50 GLP-1R.
Setting [9] is: CHO cells, cAMP, normalized to maximum signal from GLP-1 (high) and DMSO (low).
The mark [10] stands for this setting: β-arrestin-2 recruitment, PathHunter CHO-K1 GLP1R β-Arrestin Cell Line, 90 min at 37° C., normalized to GLP-1, read-out: GLP-1R β Arrestin EC50.

Where two headings read alike, the source gives them in different places. *1 amine or outer side, *2 acyl side, *3 side chain or, on linkers, in order; H or OH if unused. Where a SMILES comes first, the peptide text is derived from it. Side-chain parts run from the residue outwards. [ ]: non-standard residue; d: D form. The star is where a group is joined. Isobutyryl(2-(3-CN-5-F-Ph)) = CC(C)(C(=O)*)c1cc(F)cc(C#N)c1; NH(4-Cl-3-CF3-phenyl) = FC(F)(F)c1cc(N*)ccc1Cl; C20 diacid = O=C(O)CCCCCCCCCCCCCCCCCCC(=O)*; X56 = CC(C)(C(=O)*)c1cc(F)cc(C(N)=O)c1; γGlu = O=C(O)[C@H](CCC(=O)[*:2])N[*:1]; Trx = NC[C@H]1CC[C@H](C(=O)O)CC1; αMeF = C[C@](N)(Cc1ccccc1)C(=O)O; AEEA = NCCOCCOCC(=O)O; Aib = CC(C)(N)C(=O)O; CO = O=C([*:1])[*:2]; GABA = NCCCC(=O)O; βAla = NCCC(=O)O

T2 sequence (P43220 24-463): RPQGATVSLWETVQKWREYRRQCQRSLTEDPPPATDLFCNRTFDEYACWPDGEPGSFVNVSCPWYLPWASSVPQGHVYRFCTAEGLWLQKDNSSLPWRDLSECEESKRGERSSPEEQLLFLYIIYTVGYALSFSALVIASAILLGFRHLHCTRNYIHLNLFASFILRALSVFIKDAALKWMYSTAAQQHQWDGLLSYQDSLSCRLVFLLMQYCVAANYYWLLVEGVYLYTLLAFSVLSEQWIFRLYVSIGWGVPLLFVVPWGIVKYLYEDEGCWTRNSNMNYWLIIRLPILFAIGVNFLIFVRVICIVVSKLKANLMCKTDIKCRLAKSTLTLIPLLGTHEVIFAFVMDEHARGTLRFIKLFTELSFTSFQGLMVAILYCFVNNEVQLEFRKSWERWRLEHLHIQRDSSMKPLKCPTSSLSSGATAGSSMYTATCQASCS

As to `CC[C@H](C)[C@H](NC(=O)[C@H](CC(C)C)NC(=O)[C@H](Cc1c[nH]c2ccccc12)NC(=O)[C@H](CCC(N)=O)NC(=O)[C@@H](NC(=O)[C@H](Cc1ccccc1)NC(=O)[C@H](C)NC(=O)[C@H](CCCCNC(=O)CC[C@H](NC(=O)CC[C@H](NC(=O)CC[C@H](NC(=O)[C@H]1CC[C@H](CNC(=O)CCCCCCCCCCCCCCCCCCC(=O)O)CC1)C(=O)O)C(=O)O)C(=O)O)NC(=O)[C@H](CCC(N)=O)NC(=O)[C@H](C)NC(=O)[C@@H](NC(=O)[C@H](CCCCN)NC(=O)[C@H](CC(=O)O)NC(=O)[C@H](CC(C)C)NC(=O)C(C)(C)NC(=O)[C@@H](NC(=O)[C@H](CO)NC(=O)[C@H](Cc1ccc(O)cc1)NC(=O)[C@H](CC(=O)O)NC(=O)[C@H](CO)NC(=O)[C@@H](NC(=O)[C@H](Cc1ccccc1)NC(=O)[C@@H](NC(=O)CNC(=O)[C@H](CCC(=O)O)NC(=O)CCNC(=O)C(C)(C)c1cc(F)cc(C#N)c1)[C@@H](C)O)[C@@H](C)O)[C@@H](C)CC)[C@@H](C)CC)C(C)C)C(=O)N[C@@H](C)C(=O)NCC(=O)NCC(=O)N1CCC[C@H]1C(=O)N[C@@H](CO)C(=O)N[C@@H](CO)C(=O)NCC(=O)N[C@@H](C)C(=O)N1CCC[C@H]1C(=O)N1CCC[C@H]1C(=O)N1CCC[C@H]1C(=O)N[C@@H](CO)C(N)=O` [Compound 107] ({Isobutyryl(2-(3-CN-5-F-Ph))-βAla}-EGTFTSDYSI[Aib]LDKIAQK([γGlu-γGlu-γGlu-Trx-C20 diacid])AFVQWLIAGGPSSGAPPPS-NH2), the EC50 at GIP receptor [1] (setting [5]) was 1 to 10 nM; at GIP receptor [2] (setting [7]), less than 1000 nM; on GLP-1 receptor [3] (setting [8]) it was 0.1 to 1 nM; on GLP-1 receptor [4] (setting [10]), greater than 1000 nM. For the same molecule, the figures for the Emax at GIP receptor [1] (setting [6]) and on GLP-1 receptor [3] (setting [9]) were 106% and 95%, respectively.
Take `CC[C@H](C)[C@H](NC(=O)[C@H](CO)NC(=O)[C@H](CCCCNC(=O)COCCOCCNC(=O)COCCOCCNC(=O)CC[C@H](NC(=O)CCCCCCCCCCCCCCCCCCC(=O)O)C(=O)O)NC(=O)[C@H](CC(=O)O)NC(=O)[C@H](CO)NC(=O)[C@@H](NC(=O)[C@H](Cc1ccccc1)NC(=O)[C@@H](NC(=O)CNC(=O)[C@H](CCC(=O)O)NC(=O)CCNC(=O)C(C)(C)c1cccc(C#N)c1)[C@@H](C)O)[C@@H](C)O)C(=O)N[C@@H](Cc1ccc(O)cc1)C(=O)N[C@@H](CC(C)C)C(=O)N[C@@H](CC(=O)O)C(=O)N[C@@H](CCCCN)C(=O)N[C@@H](CCC(N)=O)C(=O)N[C@@H](C)C(=O)N[C@@H](C)C(=O)NC(C)(C)C(=O)N[C@@H](CCC(=O)O)C(=O)N[C@@H](Cc1ccccc1)C(=O)N[C@H](C(=O)N[C@@H](CC(N)=O)C(=O)N[C@@H](Cc1c[nH]c2ccccc12)C(=O)N[C@@H](CC(C)C)C(=O)N[C@@H](CC(C)C)C(=O)N[C@@H](C)C(=O)NCC(=O)NCC(=O)N1CCC[C@H]1C(=O)N[C@@H](CO)C(=O)N[C@@H](CO)C(=O)NCC(=O)N[C@@H](C)C(=O)N1CCC[C@H]1C(=O)N1CCC[C@H]1C(=O)N1CCC[C@H]1C(=O)N[C@@H](CO)C(N)=O)C(C)C` [Compound 143]: the concentration for a half-maximal effect (EC50) at GIP receptor [1] is 10 to 100 nM; on GIP receptor [2] it was greater than 1000 nM; on GLP-1 receptor [3], less than 0.1 nM; at GLP-1 receptor [4] it was less than 1000 nM. The figures for the maximal effect (Emax) at GIP receptor [1] (setting [6]) and at GLP-1 receptor [3] (setting [9]) were 100% and 101%, respectively.
For `CC[C@H](C)[C@H](NC(=O)[C@H](CC(C)C)NC(=O)[C@H](Cc1c[nH]c2ccccc12)NC(=O)[C@H](CCC(N)=O)NC(=O)[C@@H](NC(=O)[C@H](Cc1ccccc1)NC(=O)[C@H](C)NC(=O)[C@H](CCCCNC(=O)COCCOCCNC(=O)COCCOCCNC(=O)CC[C@H](NC(=O)CCCCCCCCCCCCCCCCCCC(=O)O)C(=O)O)NC(=O)[C@H](CCC(N)=O)NC(=O)[C@H](C)NC(=O)[C@@H](NC(=O)[C@H](CCCCN)NC(=O)[C@H](CC(=O)O)NC(=O)[C@H](CC(C)C)NC(=O)C(C)(C)NC(=O)[C@@H](NC(=O)[C@H](CO)NC(=O)[C@H](Cc1ccc(O)cc1)NC(=O)[C@H](CC(=O)O)NC(=O)[C@H](CO)NC(=O)[C@@H](NC(=O)[C@](C)(Cc1ccccc1)NC(=O)[C@@H](NC(=O)CNC(=O)[C@H](CCC(=O)O)NC(=O)CCNC(=O)C(C)(C)c1cc(F)cc(C#N)c1)[C@@H](C)O)[C@@H](C)O)[C@@H](C)CC)[C@@H](C)CC)C(C)C)C(=O)N[C@@H](C)C(=O)NCC(=O)NCC(=O)N1CCC[C@H]1C(=O)N[C@@H](CO)C(=O)N[C@@H](CO)C(=O)NCC(=O)N[C@@H](C)C(=O)N1CCC[C@H]1C(=O)N1CCC[C@H]1C(=O)N1CCC[C@H]1C(=O)N[C@@H](CO)C(N)=O` [Compound 235] ({Isobutyryl(2-(3-CN-5-F-Ph))-βAla}-EGT[αMeF]TSDYSI[Aib]LDKIAQK([AEEA-AEEA-γGlu-C20 diacid])AFVQWLIAGGPSSGAPPPS-NH2), the EC50 was 0.1 to 1 nM at GIP receptor [1] (setting [5]), less than 1000 nM on GIP receptor [2] (setting [7]), 0.1 to 1 nM on GLP-1 receptor [3] (setting [8]) and greater than 1000 nM at GLP-1 receptor [4] (setting [10]). Besides, the Emax at GIP receptor [1] (setting [6]) is 108%; at GLP-1 receptor [3] (setting [9]) it was 122%.
For the molecule `CC[C@H](C)[C@H](NC(=O)[C@H](CC(C)C)NC(=O)[C@H](Cc1c[nH]c2ccccc12)NC(=O)[C@H](CCC(N)=O)NC(=O)[C@@H](NC(=O)[C@H](Cc1ccccc1)NC(=O)[C@H](C)NC(=O)[C@H](CCCCNC(=O)COCCOCCNC(=O)COCCOCCNC(=O)CC[C@H](NC(=O)CCCCCCCCCCCCCCCCCCC(=O)O)C(=O)O)NC(=O)[C@H](CCC(N)=O)NC(=O)[C@H](C)NC(=O)[C@@H](NC(=O)[C@H](CCCCN)NC(=O)[C@H](CC(=O)O)NC(=O)[C@H](CC(C)C)NC(=O)C(C)(C)NC(=O)[C@@H](NC(=O)[C@H](CO)NC(=O)[C@H](Cc1ccc(O)cc1)NC(=O)[C@H](CC(=O)O)NC(=O)[C@H](CO)NC(=O)[C@@H](NC(=O)[C@H](Cc1ccccc1)NC(=O)[C@@H](NC(=O)CNC(=O)[C@H](CCC(=O)O)NC(=O)CCCNC(=O)CNC(=O)Nc1ccc(Cl)c(C(F)(F)F)c1)[C@@H](C)O)[C@@H](C)O)[C@@H](C)CC)[C@@H](C)CC)C(C)C)C(=O)N[C@@H](C)C(=O)NCC(=O)NCC(=O)N1CCC[C@H]1C(=O)N[C@@H](CO)C(=O)N[C@@H](CO)C(=O)NCC(=O)N[C@@H](C)C(=O)N1CCC[C@H]1C(=O)N1CCC[C@H]1C(=O)N1CCC[C@H]1C(=O)N[C@@H](CO)C(N)=O` [Compound 265] ({NH(4-Cl-3-CF3-phenyl)-CO}-G[GABA]EGTFTSDYSI[Aib]LDKIAQK([AEEA-AEEA-γGlu-C20 diacid])AFVQWLIAGGPSSGAPPPS-NH2), the EC50 at GIP receptor [1] is 1 to 10 nM; on GIP receptor [2], less than 1000 nM; on GLP-1 receptor [3], 10 to 100 nM; at GLP-1 receptor [4], greater than 1000 nM. Also, the maximal response (Emax) turned out to be 107% at GIP receptor [1] (CHO) and 94% at GLP-1 receptor [3] (CHO).
Regarding `CC[C@H](C)[C@H](NC(=O)[C@H](CC(C)C)NC(=O)[C@H](Cc1c[nH]c2ccccc12)NC(=O)[C@H](CCC(N)=O)NC(=O)[C@@H](NC(=O)[C@H](Cc1ccccc1)NC(=O)[C@H](C)NC(=O)[C@H](CCCCNC(=O)COCCOCCNC(=O)COCCOCCNC(=O)CC[C@H](NC(=O)CCCCCCCCCCCCCCCCCCC(=O)O)C(=O)O)NC(=O)[C@H](CCC(N)=O)NC(=O)[C@H](C)NC(=O)[C@@H](NC(=O)[C@H](CCCCN)NC(=O)[C@H](CC(=O)O)NC(=O)[C@H](CC(C)C)NC(=O)C(C)(C)NC(=O)[C@@H](NC(=O)[C@H](CO)NC(=O)[C@H](Cc1ccc(O)cc1)NC(=O)[C@H](CC(=O)O)NC(=O)[C@H](CO)NC(=O)[C@@H](NC(=O)[C@H](Cc1ccccc1)NC(=O)[C@@H](NC(=O)CNC(=O)[C@H](CCC(=O)O)NC(=O)CCNC(=O)C(C)(C)c1cc(F)cc(C(N)=O)c1)[C@@H](C)O)[C@@H](C)O)[C@@H](C)CC)[C@@H](C)CC)C(C)C)C(=O)N[C@@H](C)C(=O)NCC(=O)NCC(=O)N1CCC[C@H]1C(=O)N[C@@H](CO)C(=O)N[C@@H](CO)C(=O)NCC(=O)N[C@@H](C)C(=O)N1CCC[C@H]1C(=O)N1CCC[C@H]1C(=O)N1CCC[C@H]1C(=O)N[C@@H](CO)C(N)=O` [Compound 159] ({X56-βAla}-EGTFTSDYSI[Aib]LDKIAQK([AEEA-AEEA-γGlu-C20 diacid])AFVQWLIAGGPSSGAPPPS-NH2), the concentration for a half-maximal effect (EC50) at GIP receptor [1] (setting [5]) is 10 to 100 nM; on GIP receptor [2] (setting [7]) it was greater than 1000 nM; at GLP-1 receptor [3] (setting [8]) it was 1 to 10 nM; on GLP-1 receptor [4] (setting [10]), greater than 1000 nM. Besides, the Emax on GIP receptor [1] (setting [6]) was 104%; on GLP-1 receptor [3] (setting [9]), 100%.

The EC50 is the concentration at which the effect is half-maximal. One may read the Emax as the maximal effect, on the per cent scale that the assay sets.
